# Experimental data taken from US12139520B2 (priority 2020, dated 2024).
# Numbered stars: 1 amine (or outer) side, 2 acyl side, 3 side chain; on linkers, the order of the positions; unused ones are H or OH. Bridge positions count the residues as written; N and C are the ends. Square brackets hold non-standard residues; d marks the D form. Peptide text beside a SMILES is read from it. * marks the point of attachment. C20 diacid = O=C(O)CCCCCCCCCCCCCCCCCCC(=O)*; γGlu = O=C(O)[C@H](CCC(=O)[*:2])N[*:1]; Hyp = O=C(O)[C@@H]1C[C@@H](O)CN1
# Molecular target: T1, hAMY3 receptor (Homo sapiens, UniProt O60896+P30988)
# T1 sequence (P30988 25-474): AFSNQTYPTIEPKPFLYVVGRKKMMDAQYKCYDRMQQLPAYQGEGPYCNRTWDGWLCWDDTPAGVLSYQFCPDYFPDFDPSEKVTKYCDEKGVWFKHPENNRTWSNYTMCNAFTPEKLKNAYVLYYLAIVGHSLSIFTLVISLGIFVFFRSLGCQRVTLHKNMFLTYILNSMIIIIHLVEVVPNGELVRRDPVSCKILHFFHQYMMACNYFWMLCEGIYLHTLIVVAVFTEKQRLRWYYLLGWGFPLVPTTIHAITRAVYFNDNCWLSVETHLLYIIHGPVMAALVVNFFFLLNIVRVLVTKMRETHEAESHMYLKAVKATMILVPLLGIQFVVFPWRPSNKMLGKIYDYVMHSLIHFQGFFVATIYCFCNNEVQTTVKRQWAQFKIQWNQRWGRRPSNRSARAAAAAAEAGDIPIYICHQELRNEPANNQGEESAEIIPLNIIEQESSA
# T1 sequence (O60896 24-148 partner): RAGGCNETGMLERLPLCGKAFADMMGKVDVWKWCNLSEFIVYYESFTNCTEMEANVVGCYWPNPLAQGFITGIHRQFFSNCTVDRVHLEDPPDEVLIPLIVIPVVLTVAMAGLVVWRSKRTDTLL
# Test: cAMP assay for in vitro receptor activation, hAMY3-R
# Format: cell-based
# Conditions: cAMP assay, hAMY3 receptor; read-out: hAMY3R EC50
# Method in brief: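 Monoclonal cell line stably overexpressing human AMY3 receptor, 2000 cells/well in DPBS with 0.05% casein and 0.5 mM IBMX. Stimulated 30 min at room temperature with graded compound doses, human amylin as positive control. cAMP accumulation read by TR-FRET after one hour.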
row,SMILES,EC50 [nM]
1,CC[C@H](C)[C@H](NC(=O)[C@H](CCC(N)=O)NC(=O)[C@H](Cc1c[nH]cn1)NC(=O)[C@H](C)NC(=O)[C@H](CC(C)C)NC(=O)[C@H](CCCNC(=N)N)NC(=O)[C@H](CCC(N)=O)NC(=O)[C@@H](NC(=O)[C@@H](NC(=O)[C@@H]1CSSC[C@H](NC(=O)CN)C(=O)N[C@@H](CCCNC(=N)N)C(=O)N[C@@H](Cc2ccccc2)C(=O)NCC(=O)N[C@@H]([C@@H](C)O)C(=O)N1)[C@@H](C)O)C(C)C)C(=O)N[C@@H](Cc1ccc(O)cc1)C(=O)N[C@@H](CCC(N)=O)C(=O)N[C@@H](Cc1ccccc1)C(=O)N[C@H](C(=O)N[C@@H](CC(=O)O)C(=O)N[C@@H](CCCCN)C(=O)N[C@@H](CC(=O)O)C(=O)N[C@@H](CCCCN)C(=O)N[C@@H](CC(=O)O)C(=O)N[C@@H](CC(N)=O)C(=O)N[C@H](C(=O)N[C@@H](C)C(=O)N1CCC[C@H]1C(=O)N[C@@H](CCCNC(=N)N)C(=O)N[C@@H](CO)C(=O)N[C@@H](CCCCN)C(=O)N[C@H](C(=O)N[C@@H](CO)C(=O)N1CCC[C@H]1C(=O)N[C@@H](CCC(N)=O)C(=O)NCC(=O)N1C[C@H](O)C[C@H]1C(N)=O)[C@@H](C)CC)C(C)C)[C@@H](C)O [compound 169] (H-GCRFGTCTVQRLAHQIYQFTDKDKDNVAPRSKISPQG[Hyp]-NH2; disulfide 2-7; N-terminus assumed),0.063
2,CC[C@H](C)[C@H](NC(=O)[C@H](CC(N)=O)NC(=O)[C@H](CO)NC(=O)[C@H](CCCNC(=N)N)NC(=O)[C@@H]1CCCN1C(=O)[C@H](C)NC(=O)[C@@H](NC(=O)[C@H](CC(N)=O)NC(=O)[C@H](CC(=O)O)NC(=O)[C@H](CCCCN)NC(=O)[C@H](CC(=O)O)NC(=O)[C@H](CCCCN)NC(=O)[C@H](CC(=O)O)NC(=O)[C@@H](NC(=O)[C@H](Cc1ccccc1)NC(=O)[C@H](CCC(N)=O)NC(=O)[C@H](Cc1ccc(O)cc1)NC(=O)[C@@H](NC(=O)[C@H](CCC(N)=O)NC(=O)[C@H](Cc1c[nH]cn1)NC(=O)[C@H](C)NC(=O)[C@H](CC(C)C)NC(=O)[C@H](CCCNC(=N)N)NC(=O)[C@H](CCC(N)=O)NC(=O)[C@@H](NC(=O)[C@@H](NC(=O)[C@@H]1CSSC[C@H](NC(=O)CN)C(=O)N[C@@H](CCCNC(=N)N)C(=O)N[C@@H]([C@@H](C)O)C(=O)NCC(=O)N[C@@H]([C@@H](C)O)C(=O)N1)[C@@H](C)O)C(C)C)[C@@H](C)CC)[C@@H](C)O)C(C)C)C(=O)NCC(=O)N1CCC[C@H]1C(=O)N[C@@H](CC(N)=O)C(=O)NCC(=O)N1C[C@H](O)C[C@H]1C(N)=O [compound 151] (H-GCRTGTCTVQRLAHQIYQFTDKDKDNVAPRSNIGPNG[Hyp]-NH2; disulfide 2-7; N-terminus assumed),0.041
3,CC[C@H](C)[C@H](NC(=O)[C@H](CCC(N)=O)NC(=O)[C@H](Cc1c[nH]cn1)NC(=O)[C@H](C)NC(=O)[C@H](CC(C)C)NC(=O)[C@H](CCCNC(=N)N)NC(=O)[C@H](CCC(N)=O)NC(=O)[C@@H](NC(=O)[C@@H](NC(=O)[C@@H]1CSSC[C@H](NC(=O)[C@@H](N)CCCCN)C(=O)N[C@@H](CC(N)=O)C(=O)N[C@@H]([C@@H](C)O)C(=O)N[C@@H](C)C(=O)N[C@@H]([C@@H](C)O)C(=O)N1)[C@@H](C)O)C(C)C)C(=O)N[C@@H](Cc1ccc(O)cc1)C(=O)N[C@@H](CCC(N)=O)C(=O)N[C@@H](Cc1ccccc1)C(=O)N[C@H](C(=O)N[C@@H](CC(=O)O)C(=O)N[C@@H](CCCCN)C(=O)N[C@@H](CC(=O)O)C(=O)N[C@@H](CCCCN)C(=O)N[C@@H](CC(=O)O)C(=O)N[C@@H](CC(N)=O)C(=O)N[C@H](C(=O)N[C@@H](C)C(=O)N1CCC[C@H]1C(=O)N[C@@H](CCCNC(=N)N)C(=O)N[C@H](C(=O)N[C@@H](CCCCN)C(=O)N[C@H](C(=O)NCC(=O)N[C@@H](CO)C(=O)N[C@@H](CC(N)=O)C(=O)NCC(=O)N[C@@H](Cc1ccc(O)cc1)C(N)=O)C(C)C)[C@@H](C)O)C(C)C)[C@@H](C)O [compound 34] (H-KCNTATCTVQRLAHQIYQFTDKDKDNVAPRTKVGSNGY-NH2; disulfide 2-7; N-terminus assumed),0.009
4,CC[C@H](C)[C@H](NC(=O)[C@H](CCC(N)=O)NC(=O)[C@H](Cc1c[nH]cn1)NC(=O)[C@H](C)NC(=O)[C@H](CC(C)C)NC(=O)[C@H](CCCNC(=N)N)NC(=O)[C@H](CCC(N)=O)NC(=O)[C@@H](NC(=O)[C@@H](NC(=O)[C@@H]1CSSC[C@H](NC(=O)[C@@H](N)CCCCN)C(=O)N[C@@H](CC(N)=O)C(=O)N[C@@H](Cc2ccccc2)C(=O)N[C@@H](C)C(=O)N[C@@H]([C@@H](C)O)C(=O)N1)[C@@H](C)O)C(C)C)C(=O)N[C@@H](Cc1ccc(O)cc1)C(=O)N[C@@H](CCC(N)=O)C(=O)N[C@@H](Cc1ccccc1)C(=O)N[C@H](C(=O)N[C@@H](CC(=O)O)C(=O)N[C@@H](CCCCN)C(=O)N[C@@H](CC(=O)O)C(=O)N[C@@H](CCCCN)C(=O)N[C@@H](CC(=O)O)C(=O)N[C@@H](CC(N)=O)C(=O)N[C@H](C(=O)N[C@@H](C)C(=O)N1CCC[C@H]1C(=O)N[C@@H](CCCNC(=N)N)C(=O)N[C@H](C(=O)N[C@@H](CCC(=O)O)C(=O)N[C@H](C(=O)NCC(=O)N[C@@H](CO)C(=O)N[C@@H](CC(N)=O)C(=O)NCC(=O)N1C[C@H](O)C[C@H]1C(N)=O)C(C)C)[C@@H](C)O)C(C)C)[C@@H](C)O [compound 17] (H-KCNFATCTVQRLAHQIYQFTDKDKDNVAPRTEVGSNG[Hyp]-NH2; disulfide 2-7; N-terminus assumed),0.008

# Continued, values first:
row,EC50 [nM],SMILES
1,0.022,CC[C@H](C)[C@H](NC(=O)[C@H](CCC(N)=O)NC(=O)[C@H](Cc1c[nH]cn1)NC(=O)[C@H](C)NC(=O)[C@H](CC(C)C)NC(=O)[C@H](CCCNC(=N)N)NC(=O)[C@H](CCC(N)=O)NC(=O)[C@@H](NC(=O)[C@@H](NC(=O)[C@@H]1CSSC[C@H](NC(=O)CN)C(=O)N[C@@H](CCCNC(=N)N)C(=O)N[C@@H](Cc2ccccc2)C(=O)NCC(=O)N[C@@H]([C@@H](C)O)C(=O)N1)[C@@H](C)O)C(C)C)C(=O)N[C@@H](Cc1ccc(O)cc1)C(=O)N[C@@H](CCC(N)=O)C(=O)N[C@@H](Cc1ccccc1)C(=O)N[C@H](C(=O)N[C@@H](CC(=O)O)C(=O)N[C@@H](CCCCN)C(=O)N[C@@H](CC(=O)O)C(=O)N[C@@H](CCCCN)C(=O)N[C@@H](CC(=O)O)C(=O)N[C@@H](CC(N)=O)C(=O)N[C@H](C(=O)N[C@@H](C)C(=O)N1CCC[C@H]1C(=O)N[C@@H](CCCNC(=N)N)C(=O)N[C@@H](CO)C(=O)N[C@@H](CCCCN)C(=O)N[C@H](C(=O)NCC(=O)N1CCC[C@H]1C(=O)N[C@@H](CCC(N)=O)C(=O)NCC(=O)N[C@@H](Cc1ccc(O)cc1)C(N)=O)C(C)C)C(C)C)[C@@H](C)O [compound 375] (H-GCRFGTCTVQRLAHQIYQFTDKDKDNVAPRSKVGPQGY-NH2; disulfide 2-7; N-terminus assumed)
2,0.019,CC[C@H](C)[C@H](NC(=O)[C@H](CCC(N)=O)NC(=O)[C@H](Cc1c[nH]cn1)NC(=O)[C@H](C)NC(=O)[C@H](CC(C)C)NC(=O)[C@H](CCCNC(=N)N)NC(=O)[C@H](CCC(N)=O)NC(=O)[C@@H](NC(=O)[C@@H](NC(=O)[C@@H]1CSSC[C@H](NC(=O)CN)C(=O)N[C@@H](CCCNC(=N)N)C(=O)N[C@@H](Cc2ccccc2)C(=O)NCC(=O)N[C@@H]([C@@H](C)O)C(=O)N1)[C@@H](C)O)C(C)C)C(=O)N[C@@H](Cc1ccc(O)cc1)C(=O)N[C@@H](CCC(N)=O)C(=O)N[C@@H](Cc1ccccc1)C(=O)N[C@H](C(=O)N[C@@H](CC(=O)O)C(=O)N[C@@H](CCCCN)C(=O)N[C@@H](CC(=O)O)C(=O)N[C@@H](CCCCN)C(=O)N[C@@H](CC(=O)O)C(=O)N[C@@H](CC(N)=O)C(=O)N[C@H](C(=O)N[C@@H](C)C(=O)N1CCC[C@H]1C(=O)N[C@@H](CCCNC(=N)N)C(=O)N[C@H](C(=O)N[C@@H](CCCCN)C(=O)N[C@H](C(=O)N[C@@H](CO)C(=O)N1CCC[C@H]1C(=O)N[C@@H](CC(N)=O)C(=O)NCC(=O)N[C@@H](Cc1ccc(O)cc1)C(N)=O)[C@@H](C)CC)[C@@H](C)O)C(C)C)[C@@H](C)O [compound 371] (H-GCRFGTCTVQRLAHQIYQFTDKDKDNVAPRTKISPNGY-NH2; disulfide 2-7; N-terminus assumed)
3,0.017,CC[C@H](C)[C@H](NC(=O)[C@H](CCC(N)=O)NC(=O)[C@H](Cc1c[nH]cn1)NC(=O)[C@H](C)NC(=O)[C@H](CC(C)C)NC(=O)[C@H](CCCNC(=N)N)NC(=O)[C@H](CCC(N)=O)NC(=O)[C@@H](NC(=O)[C@@H](NC(=O)[C@@H]1CSSC[C@H](NC(=O)[C@H](CCCCN)NC(=O)CC[C@H](NC(=O)CCCCCCCCCCCCCCCCCCC(=O)O)C(=O)O)C(=O)N[C@@H](CC(N)=O)C(=O)N[C@@H](Cc2ccccc2)C(=O)N[C@@H](C)C(=O)N[C@@H]([C@@H](C)O)C(=O)N1)[C@@H](C)O)C(C)C)C(=O)N[C@@H](Cc1ccc(O)cc1)C(=O)N[C@@H](CCC(N)=O)C(=O)N[C@@H](Cc1ccccc1)C(=O)N[C@H](C(=O)N[C@@H](CC(=O)O)C(=O)N[C@@H](CCCCN)C(=O)N[C@@H](CC(=O)O)C(=O)N[C@@H](CCCCN)C(=O)N[C@@H](CC(=O)O)C(=O)N[C@@H](CC(N)=O)C(=O)N[C@H](C(=O)N[C@@H](C)C(=O)N1CCC[C@H]1C(=O)N[C@@H](CCCNC(=N)N)C(=O)N[C@H](C(=O)N[C@@H](CCC(=O)O)C(=O)N[C@H](C(=O)NCC(=O)N[C@@H](CO)C(=O)N[C@@H](CC(N)=O)C(=O)NCC(=O)N[C@@H](Cc1ccc(O)cc1)C(N)=O)C(C)C)[C@@H](C)O)C(C)C)[C@@H](C)O [compound 370] ({C20 diacid-γGlu}-KCNFATCTVQRLAHQIYQFTDKDKDNVAPRTEVGSNGY-NH2; disulfide 2-7)
